From ChEMBL document CHEMBL1909046, “DrugMatrix in vitro pharmacology data”

Assays:
[1] = biological target: T1, Polyunsaturated fatty acid lipoxygenase ALOX15 (Oryctolagus cuniculus, UniProt P12530); experiment: biochemical; assay type: tissue-based, Reticulocytes; details: reticulocytes;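 further: inhibition of 15-lipoxygenase enzyme activity measured with linoleic acid as the substrate; in other assays of this panel Not Active means under 50% inhibition at 10 µM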
T1 sequence (P12530 whole entry): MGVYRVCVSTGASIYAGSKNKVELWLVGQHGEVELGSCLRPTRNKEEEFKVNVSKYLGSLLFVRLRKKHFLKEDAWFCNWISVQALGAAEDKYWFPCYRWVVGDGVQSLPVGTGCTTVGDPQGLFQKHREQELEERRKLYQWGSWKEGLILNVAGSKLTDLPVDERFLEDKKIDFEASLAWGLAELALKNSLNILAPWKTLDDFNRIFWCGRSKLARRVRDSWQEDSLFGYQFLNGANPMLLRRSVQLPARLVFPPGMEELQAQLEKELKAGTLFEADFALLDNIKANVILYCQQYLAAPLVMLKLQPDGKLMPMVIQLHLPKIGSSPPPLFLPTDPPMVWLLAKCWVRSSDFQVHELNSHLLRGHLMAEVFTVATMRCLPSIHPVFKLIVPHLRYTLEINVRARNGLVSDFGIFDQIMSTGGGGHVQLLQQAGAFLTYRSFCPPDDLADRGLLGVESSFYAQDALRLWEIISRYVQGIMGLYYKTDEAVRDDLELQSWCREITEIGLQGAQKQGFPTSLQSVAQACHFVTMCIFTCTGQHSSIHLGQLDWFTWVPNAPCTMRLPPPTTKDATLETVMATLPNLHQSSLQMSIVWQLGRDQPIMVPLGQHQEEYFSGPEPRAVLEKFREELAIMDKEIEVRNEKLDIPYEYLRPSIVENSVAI

[2] = DRUGMATRIX: Purinergic P2X radioligand binding (ligand: [3H] alpha, beta-Methylene-ATP); assay type: cell membranes, Oryctolagus cuniculus, New Zealand albino, Urinary bladder, Membrane; details: Not Active = under 50% inhibition at 10 µM
[3] = DRUGMATRIX: GABAA, Chloride Channel, TBOB radioligand binding (ligand: [3H] TBOB); assay type: cell membranes, Rattus norvegicus, Wistar, Cerebral cortex, Membrane; details: Not Active = under 50% inhibition at 10 µM
[4] = biological target: T2, Alpha-1A adrenergic receptor (Rattus norvegicus, UniProt P43140); experiment: DRUGMATRIX: Alpha-1A adrenergic receptor radioligand binding (ligand: prazosin); assay type: cell membranes, Wistar, Submaxillary gland, Membrane; details: Not Active = under 50% inhibition at 10 µM
T2 sequence (P43140 whole entry): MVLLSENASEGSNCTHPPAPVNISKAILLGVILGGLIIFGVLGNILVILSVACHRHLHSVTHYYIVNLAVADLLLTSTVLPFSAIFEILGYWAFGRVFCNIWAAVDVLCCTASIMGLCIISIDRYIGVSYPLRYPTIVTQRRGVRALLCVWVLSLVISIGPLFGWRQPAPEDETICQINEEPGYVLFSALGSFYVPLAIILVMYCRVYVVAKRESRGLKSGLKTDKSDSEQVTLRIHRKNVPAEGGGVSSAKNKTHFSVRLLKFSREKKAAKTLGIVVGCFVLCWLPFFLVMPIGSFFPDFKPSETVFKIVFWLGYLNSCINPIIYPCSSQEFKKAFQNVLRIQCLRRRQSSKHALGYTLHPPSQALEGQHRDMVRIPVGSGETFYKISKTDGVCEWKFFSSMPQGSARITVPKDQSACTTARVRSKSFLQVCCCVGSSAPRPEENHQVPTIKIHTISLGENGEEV

[5] = biological target: Platelet-activating factor receptor (Homo sapiens, UniProt P25105); assay type: tissue-based; further: in other assays of this panel Not Active means under 50% inhibition at 10 µM
[6] = biological target: T3, Cholecystokinin receptor type A (Homo sapiens, UniProt P32238); assay type: cell membranes, Membrane; details: 1321-n1; further: in other assays of this panel Not Active means under 50% inhibition at 10 µM
T3 sequence (P32238 whole entry): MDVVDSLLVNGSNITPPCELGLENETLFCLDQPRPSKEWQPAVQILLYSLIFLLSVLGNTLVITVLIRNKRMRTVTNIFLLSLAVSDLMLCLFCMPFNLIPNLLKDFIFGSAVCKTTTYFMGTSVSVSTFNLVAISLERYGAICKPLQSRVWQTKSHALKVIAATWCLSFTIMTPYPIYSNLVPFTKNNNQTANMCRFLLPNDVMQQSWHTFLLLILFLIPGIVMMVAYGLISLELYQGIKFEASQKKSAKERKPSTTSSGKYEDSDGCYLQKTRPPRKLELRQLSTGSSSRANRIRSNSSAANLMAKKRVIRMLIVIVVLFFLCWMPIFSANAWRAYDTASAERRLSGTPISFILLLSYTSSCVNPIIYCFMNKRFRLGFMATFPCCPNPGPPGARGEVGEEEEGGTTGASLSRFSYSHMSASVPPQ

Substance-K receptor = biological target: T4, Substance-K receptor (Homo sapiens, UniProt P21452); assay type: cell membranes, CHO, Membrane; details: cho; further: in other assays of this panel Not Active means under 50% inhibition at 10 µM
T4 sequence (P21452 whole entry): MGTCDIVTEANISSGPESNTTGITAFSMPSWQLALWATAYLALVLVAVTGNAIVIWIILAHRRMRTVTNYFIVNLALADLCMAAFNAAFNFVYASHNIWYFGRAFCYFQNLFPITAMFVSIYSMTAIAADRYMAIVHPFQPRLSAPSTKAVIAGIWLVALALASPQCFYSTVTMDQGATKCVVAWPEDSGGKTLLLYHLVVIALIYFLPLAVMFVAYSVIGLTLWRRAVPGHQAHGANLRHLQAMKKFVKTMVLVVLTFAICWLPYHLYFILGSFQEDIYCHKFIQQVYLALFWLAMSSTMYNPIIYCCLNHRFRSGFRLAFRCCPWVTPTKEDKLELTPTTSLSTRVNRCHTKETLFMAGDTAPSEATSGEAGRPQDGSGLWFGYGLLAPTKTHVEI

Sequence of Platelet-activating factor receptor (P25105 whole entry): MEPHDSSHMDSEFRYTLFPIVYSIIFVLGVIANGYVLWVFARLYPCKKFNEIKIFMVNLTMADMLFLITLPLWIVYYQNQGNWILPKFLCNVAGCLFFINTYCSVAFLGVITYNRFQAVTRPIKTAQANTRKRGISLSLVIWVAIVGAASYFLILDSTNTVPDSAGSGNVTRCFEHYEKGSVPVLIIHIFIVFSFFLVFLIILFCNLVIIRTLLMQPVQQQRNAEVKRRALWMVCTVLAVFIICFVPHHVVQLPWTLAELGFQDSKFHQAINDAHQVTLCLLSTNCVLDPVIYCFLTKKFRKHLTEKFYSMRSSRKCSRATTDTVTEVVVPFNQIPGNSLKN

Cc1cn([C@H]2C=C[C@@H](CO)O2)c(=O)[nH]c1=O [STAVUDINE]
Not Active: IC50 [1] | IC50 [2] | Ki [2] | IC50 [3] | Ki [3] | IC50 [4] | IC50 [5] | IC50 [6] | IC50 (Substance-K receptor)

C[N+]1(C)[C@@H]2C[C@@H](OC(=O)[C@H](CO)c3ccccc3)C[C@H]1[C@@H]1O[C@@H]12.[Br-] [METHSCOPOLAMINE BROMIDE]
Not Active: IC50 [1] | IC50 [2] | Ki [2] | IC50 [3] | Ki [3] | IC50 [4] | IC50 [5] | IC50 [6] | IC50 (Substance-K receptor)

CC1=C(/C=C/C(C)=C/C=C/C(C)=C/C(=O)O)C(C)(C)CCC1 [TRETINOIN]
Not Active: IC50 [1] | IC50 [2] | Ki [2] | IC50 [3] | Ki [3] | IC50 [4] | IC50 [5] | IC50 [6] | IC50 (Substance-K receptor)
